Assay: In vitro cytotoxicity tested as inhibitory concentration against carcinoma KB cell line
Format: functional, cell-based
Details: Homo sapiens

Compound	IC50
O=P1(NCCCl)OCCC(O)N1CCCl (stereo not drawn) [ALDOIFOSFAMIDE]	10 µM
CO[C@H]1CCOP(=O)(NCCCl)N1CCCl (stereo partly drawn)	20 µM
CO[C@@H]1CCOP(=O)(NCCCl)N1CCCl (stereo partly drawn)	22 µM

From ChEMBL document CHEMBL1134072, “Anodic oxidation of ifosfamide and cyclophosphamide: a biomimetic metabolism model of the oxazaphosphorinane anticancer drugs” (Bioorg Med Chem Lett, 2001)
